Experimental data reported in patent publication US20230293560A1, “METHOD FOR MODULATING THE BLADDER MICROBIOME TO IMPROVE BLADDER HEALTH” (Kimberly-Clark Worldwide, Inc., priority 2020, published 2023).
“And” between values parts separate entries of the source, which are not always exact repeats. Equal entries are not always repeated.

How the values were obtained:
E. coli = test: Additional prebiotic screening against E. coli; assay type: cell-based, Escherichia coli; settings: for # fermented, Ec-1 / # grew, Ec-1: E. coli KC16-7171-8, Bladder; for # fermented, Ec-1 / # grew, Ec-1 / # fermented, Ec-2 / # grew, Ec-2 / # fermented, Ec-3 / # grew, Ec-3 / # fermented, Ec-4 / # grew, Ec-4 / # fermented, Ec-5 / # grew, Ec-5: of 2 tested; for # fermented, Ec-2 / # grew, Ec-2: E. coli KC17-3969-1, Bladder; for # fermented, Ec-3 / # grew, Ec-3: E. coli KC17-3970-4, Vagina; for # fermented, Ec-4 / # grew, Ec-4: E. coli KC17-4296-4, Vagina; for # fermented, Ec-5 / # grew, Ec-5: E. coli KC17-4297-5, Bladder; for growth or fermentation of E. coli, in words: E. coli from vaginal or bladder source
Excerpt: Additional screening of three prebiotic compounds of alpha-methyl-D-glucoside, isomaltulose, and alpha cyclodextrin was completed against pathogenic bacteria species Escherichia coli from both bladder and vaginal sources, as shown in Table 4. The growth of the bacterial species for this additional screening process against E. coli was not compared to growth of a control as in the screening process documented in Table 3, but was documented based on growth or no growth for the number of samples tested.
(§1) • 1. Create a 2% w/v stock of prebiotic or positive control (glucose/dextrose) to be tested in API 50 CHL media (Biomerieux, Marcy-I'Étoile, France). API 50 CHL media contains minimal amounts of carbon for growth, and a bromocresol purple as a pH indicator of fermentation. Filter sterilize media with a […]. Store at 4-6° C. until use. • 2. Add 180 μL of media containing the prebiotic to a sterile, flat bottom 96-well microtiter plate (Corning, Corning, NY). • 3. From a freezer stock subculture the bacteria twice into De Man, Rogosa and Sharpe (MRS) broth (BD Difco, Becton Dickinson, Franklin Lakes, NJ), 37° C., stationary, anaerobic, overnight. • 4. From the last subculture, plate onto an MRS agar plate (Teknova, Hollister, CA) and grow 37° C., stationary, anaerobic, overnight. • 5. Create a bacterial suspension by using a sterile tipped swab to transfer colonies of bacteria into a PBS suspension blank to a 0.5 MacFarland (S. anginosus or E. faecalis) or a 1 MacFarland (Lactobacillus species) from the MRS agar plate. • 6. Enumerate the starting culture. • 7. Inoculate the media alone and media containing the prebiotic or positive control with 20 μL of the bacterial suspension. • 8. Place the plate into a spectrophotometer (Molecular Devices, San Jose, CA) and read the plate every 20 minutes for 24-48 hours. Read wavelengths (OD 430, OD 590, and OD 660). A color change to yellow caused by a drop in pH will be read by an increase in the OD430 value and a decrease in the OD590 value and is indicative of bacterial fermentation. An increase in OD660 values is indicative of an increase in turbidity and bacterial growth.

L. jensenii = test: High throughput assay screening of prebiotics; assay type: cell-based, Lactobacillus jensenii; design: key: ++: if growth and fermentation was equal to or greater than the positive control; +: if growth and fermentation was less than the positive control; +: if weak or no growth or fermentation; +^2: Bacteria demonstrated growth but no fermentation on the prebiotic; settings: 2% w/v prebiotic in API 50 CHL media
Experimental: Most of the prebiotic compounds were initially tested in a high throughput assay screening process, described further in the Test Methods section herein, but three prebiotics (as noted in Table 3) were tested using a plate assay screening process as described in the Test Methods section herein. The prebiotics were tested against the commensal bacterial species of Lactobacillus crispatus, Lactobacillus gasseri, and Lactobacillus jensenii and against the pathogenic bacterial species of Streptococcus anginosus and Enterococcus faecalis as shown in Table 2. The bacterial species were taken from different sources, listed as culture collection, bladder, and vagina.
The results of the assay plate screening of the prebiotic compounds of Table 1 against the bacterial species of Table 2 is documented in Table 3 with the results being described by the following legend: • ++ if growth and fermentation was equal to or greater than the positive control • + if growth and fermentation was less than the positive control • […] if weak or no growth or fermentation • NT if not tested Some codes were not tested based on the use or non-use by the bacteria, as a way to efficiently move through the assay plate screening to the competition assay, described below.
as §1

[1] = tested on: ratio of L. crispatus/S. anginosus; test: Therapeutic effect protocol (competition assay); assay type: cell-based, Lactobacillus crispatus; Streptococcus anginosus; settings: Lc-3 vs Sa-2
Excerpt: As used herein, the term “therapeutic effect” refers to the ability of the compositions and formulations of the present disclosure to stimulate the growth of L. crispatus relative S. anginosus measured according to the therapeutic effect protocol described below. The therapeutic effect can be expressed as a ratio of L. crispatus to S. anginosus and is desirably greater than about 100, more preferably greater than about 500 and more desirably greater than about 1,000.
Further testing was conducted to put the prebiotic compounds in competition assay testing, as further described in the test methods section herein. In the competition assay testing, each competition involved testing a single prebiotic compound with the commensal bacteria species of L. crispatus, KC18-1173-1, Bladder (“Lc-3”—Table 2) against the pathogenic bacterial species of S. anginosus, KC18-1131-3B, Bladder (“Sa-2”—Table 2).
• 1. An in house bacterial agar was created based on MRS agar (Kaplan and Hutkins, 2000) where the glucose is substituted for the prebiotic to be tested (either dextran MW ˜6,000, alpha-cyclodextrin, glucomannan, or pectin), bromocresol purple was included as a pH indicator. • 2. Bacteria were enumerated on each agar and color changes were recorded. Method for Competition Assay (Modified from “In Vitro Evaluation of Nutrients that Selectively Confer a Competitive Advantage to Lactobacilli” Vongsa et al, Beneficial Microbes 2016) • 1. Create 2% w/v stock of prebiotic or positive control (glucose/dextrose) as described above. • 2. From a freezer stock subculture the bacteria twice into De Man, Rogosa and Sharpe (MRS) broth (BD Difco, Becton Dickinson, Franklin Lakes, NJ), 37° C., stationary, anaerobic, overnight. • 3. From the last subculture, plate onto an MRS agar plate for L. crispatus KC18-1173-1 or blood agar for S. anginosus KC18-1131-3B, grow 37° C., stationary, anaerobic, overnight. • 4. Create a bacterial suspension by using a sterile tipped swab to transfer colonies of bacteria into a PBS suspension blank to a 2 MacFarland for both species. • 5. Enumerate the starting culture. • 6. Add 9.8 mL of prebiotic media into a 15 mL conical tube. • 7. Add 100 μL of the diluted bacteria to the media, incubate at 37° C., anaerobic, 48 hours. • 8. Harvest 100 μL from the tube containing the prebiotic and plate onto MRS agar and tryptic soy agar (TSA). • 9. Enumerate the bacteria on the MRS agar (both the L. crispatus and the S. anginosus). Small colonies are counted as S. anginosus and large colonies are counted as L. crispatus. • 10. Enumerate the bacteria on the TSA plate. […] Growth of the bacteria in the negative control (CHL media without prebiotic) was subtracted from the growth in the presence of the prebiotic or formulation.
Colonies of L. crispatus and S. anginosus were tested against in the competition method assay test method as described above. The therapeutic effect was calculated by comparing the colony forming units recovered after the competition assay of both L. crispatus and S. anginosus and calculating the ratio of L. crispatus/S. anginosus. A larger number indicates an increase in L. crispatus and/or a decrease in S. anginosus and a smaller number indicates a decrease in L. crispatus and/or an increase in S. anginosus.

Row | SMILES | # fermented, Ec-1 (E. coli) | # grew, Ec-1 (E. coli) | # fermented, Ec-2 (E. coli) | # grew, Ec-2 (E. coli) | # fermented, Ec-3 (E. coli) | # grew, Ec-3 (E. coli) | # fermented, Ec-4 (E. coli) | # grew, Ec-4 (E. coli) | # fermented, Ec-5 (E. coli) | # grew, Ec-5 (E. coli) | growth or fermentation of E. coli, in words (E. coli) | growth and fermentation vs positive control, Lj-2 (L. jensenii; L. jensenii KC17-4347-1, Bladder) | Therapeutic Effect (ratio of L. crispatus/S. anginosus) ([1]; Table 6, prebiotic 2%) | growth and fermentation vs positive control, Lj-1 (L. jensenii; L. jensenii KC17-4297-18, Bladder) | outcome of the bacterial competition assay, in words ([1]; Tables 6 and 7)
1 | CO[C@H]1O[C@H](CO)[C@@H](O)[C@H](O)[C@H]1O [Alpha-Methyl-D-Glucoside] | 0 | 0 | 0 | 0 | 0 | 0 | 0 | 0 | 0 | 0 | did not grow or ferment | + | 1.21E−01 (2×) and 1.74E−01 (2×) |  | 
2 | OC[C@H]1O[C@H](OC[C@H]2OC(O)(CO)[C@@H](O)[C@@H]2O)[C@H](O)[C@@H](O)[C@@H]1O (some centres unmarked) [Palatinose (isomaltulose), isomaltulose] | 0 | 0 | 0 | 0 | 0 | 0 | 0 | 0 | 0 | 0 | did not grow or ferment |  |  | + | supported the growth of Lactobacillus crispatus over Streptococcus anginosus
